# Results as given in PubChem BioAssay AID2060903 (Molecular Pharmacology Branch, DTP, NCI, 2025).
# pIC50: −log10 of the molar value.
# System: 377384-186-R-J1-PDC complex spheroid viability
# Assay: Anticancer human tumor 377384-186-R-J1-PDC patient-derived pancreatic carcinoma cell line growth inhibition [RAS]
# Settings: for pIC50: curve of first compound; for viability, T/C: stronger effect = lower value
# Method in brief: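 Tumour cells grown as complex spheroids with HUVEC endothelial cells and mesenchymal stem cells, treated with RAS pathway inhibitor combinations. Each agent spans half-log steps from near clinical Cmax, or 10 microM where Cmax is unknown.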
# 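Further: spheroids exposed to compounds for seven days before readout.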
smiles,measurement,setting,value
CC(C)NCC(C(=O)N1CCN(c2ncnc3c2C(C)CC3O)CC1)c1ccc(Cl)cc1 (centres undefined) + CCn1c(-c2cccnc2C(C)OC)c2c3cc(ccc31)N1CCOC(CC(NC(=O)C(C(C)C)N(C)C(=O)C3(F)CCN(C(=O)C#CC(C)(C)N(C)C)CC3)C(=O)N3CCCC(N3)C(=O)OCC(C)(C)C2)C1,pIC50,second compound 0.000949 µM,5.42
same,pIC50,second compound 0.003 µM,5.56
same,pIC50,second compound 0.00949 µM,5.56
same,pIC50,second compound 0.03 µM,5.60
same,pIC50,second compound 0.0949 µM,5.68
same,pIC50,second compound 0.3 µM,5.67
same,"viability, T/C","second compound 0.000949 µM, first compound 0.0316 µM",95.4%
same,"viability, T/C","second compound 0.000949 µM, first compound 0.1 µM",93.3%
same,"viability, T/C","second compound 0.000949 µM, first compound 0.316 µM",88.2%
same,"viability, T/C","second compound 0.000949 µM, first compound 1 µM",66.9%
same,"viability, T/C","second compound 0.000949 µM, first compound 3.16 µM",56%
same,"viability, T/C","second compound 0.000949 µM, first compound 10 µM",32.1%
same,"viability, T/C","second compound 0.003 µM, first compound 0.0316 µM",104%
same,"viability, T/C","second compound 0.003 µM, first compound 0.1 µM",106%
same,"viability, T/C","second compound 0.003 µM, first compound 0.316 µM",85.1%
same,"viability, T/C","second compound 0.003 µM, first compound 1 µM",72.2%
same,"viability, T/C","second compound 0.003 µM, first compound 3.16 µM",46.9%
same,"viability, T/C","second compound 0.003 µM, first compound 10 µM",29.4%
same,"viability, T/C","second compound 0.00949 µM, first compound 0.0316 µM",102%
same,"viability, T/C","second compound 0.00949 µM, first compound 0.1 µM",95.1%
same,"viability, T/C","second compound 0.00949 µM, first compound 0.316 µM",80.8%
same,"viability, T/C","second compound 0.00949 µM, first compound 1 µM",65.3%
same,"viability, T/C","second compound 0.00949 µM, first compound 3.16 µM",48.4%
same,"viability, T/C","second compound 0.00949 µM, first compound 10 µM",31%
same,"viability, T/C","second compound 0.03 µM, first compound 0.0316 µM",100%
same,"viability, T/C","second compound 0.03 µM, first compound 0.1 µM",85.1%
same,"viability, T/C","second compound 0.03 µM, first compound 0.316 µM",91.4%
same,"viability, T/C","second compound 0.03 µM, first compound 1 µM",66.8%
same,"viability, T/C","second compound 0.03 µM, first compound 3.16 µM",46.2%
same,"viability, T/C","second compound 0.03 µM, first compound 10 µM",29.3%
same,"viability, T/C","second compound 0.0949 µM, first compound 0.0316 µM",91.2%
same,"viability, T/C","second compound 0.0949 µM, first compound 0.1 µM",86.9%
same,"viability, T/C","second compound 0.0949 µM, first compound 0.316 µM",79.2%
same,"viability, T/C","second compound 0.0949 µM, first compound 1 µM",59.6%
same,"viability, T/C","second compound 0.0949 µM, first compound 3.16 µM",44.8%
same,"viability, T/C","second compound 0.0949 µM, first compound 10 µM",29.3%
same,"viability, T/C","second compound 0.3 µM, first compound 0.0316 µM",69.4%
same,"viability, T/C","second compound 0.3 µM, first compound 0.1 µM",78.7%
same,"viability, T/C","second compound 0.3 µM, first compound 0.316 µM",67.2%
same,"viability, T/C","second compound 0.3 µM, first compound 1 µM",59.8%
same,"viability, T/C","second compound 0.3 µM, first compound 3.16 µM",45.3%
same,"viability, T/C","second compound 0.3 µM, first compound 10 µM",27.5%
CC(C)n1nc(-c2ccc3oc(N)nc3c2)c2c(N)ncnc21 + C=CC(=O)N1CCN(c2nc(OCC3CCCN3C)nc3c(F)c(-c4nc(N)cc(C)c4C(F)(F)F)c(Cl)cc23)C(C)C1,pIC50,second compound 0.00316 µM,7.91
same,pIC50,second compound 0.01 µM,7.82
same,pIC50,second compound 0.0316 µM,7.80
same,pIC50,second compound 0.1 µM,7.95
same,pIC50,second compound 0.316 µM,7.90
same,pIC50,second compound 1 µM,7.82
same,"viability, T/C","second compound 0.00316 µM, first compound 0.000316 µM",93.6%
same,"viability, T/C","second compound 0.00316 µM, first compound 0.001 µM",80.3%
same,"viability, T/C","second compound 0.00316 µM, first compound 0.00316 µM",76%
same,"viability, T/C","second compound 0.00316 µM, first compound 0.01 µM",50.8%
same,"viability, T/C","second compound 0.00316 µM, first compound 0.0316 µM",35.4%
same,"viability, T/C","second compound 0.00316 µM, first compound 0.1 µM",21.1%
same,"viability, T/C","second compound 0.01 µM, first compound 0.000316 µM",87.2%
same,"viability, T/C","second compound 0.01 µM, first compound 0.001 µM",83.1%
same,"viability, T/C","second compound 0.01 µM, first compound 0.00316 µM",68.2%
same,"viability, T/C","second compound 0.01 µM, first compound 0.01 µM",59.4%
same,"viability, T/C","second compound 0.01 µM, first compound 0.0316 µM",36.6%
same,"viability, T/C","second compound 0.01 µM, first compound 0.1 µM",19.9%
same,"viability, T/C","second compound 0.0316 µM, first compound 0.000316 µM",90.5%
same,"viability, T/C","second compound 0.0316 µM, first compound 0.001 µM",76.3%
same,"viability, T/C","second compound 0.0316 µM, first compound 0.00316 µM",64.7%
same,"viability, T/C","second compound 0.0316 µM, first compound 0.01 µM",61.8%
same,"viability, T/C","second compound 0.0316 µM, first compound 0.0316 µM",40%
same,"viability, T/C","second compound 0.0316 µM, first compound 0.1 µM",17.4%
same,"viability, T/C","second compound 0.1 µM, first compound 0.000316 µM",91.5%
same,"viability, T/C","second compound 0.1 µM, first compound 0.001 µM",77.2%
same,"viability, T/C","second compound 0.1 µM, first compound 0.00316 µM",67.4%
same,"viability, T/C","second compound 0.1 µM, first compound 0.01 µM",50.5%
same,"viability, T/C","second compound 0.1 µM, first compound 0.0316 µM",37.9%
same,"viability, T/C","second compound 0.1 µM, first compound 0.1 µM",23.7%
same,"viability, T/C","second compound 0.316 µM, first compound 0.000316 µM",81.3%
same,"viability, T/C","second compound 0.316 µM, first compound 0.001 µM",82.2%
same,"viability, T/C","second compound 0.316 µM, first compound 0.00316 µM",70%
same,"viability, T/C","second compound 0.316 µM, first compound 0.01 µM",48.5%
same,"viability, T/C","second compound 0.316 µM, first compound 0.0316 µM",40%
same,"viability, T/C","second compound 0.316 µM, first compound 0.1 µM",18%
same,"viability, T/C","second compound 1 µM, first compound 0.000316 µM",89.7%
same,"viability, T/C","second compound 1 µM, first compound 0.001 µM",89.2%
same,"viability, T/C","second compound 1 µM, first compound 0.00316 µM",81.7%
same,"viability, T/C","second compound 1 µM, first compound 0.01 µM",55.4%
same,"viability, T/C","second compound 1 µM, first compound 0.0316 µM",37.7%
same,"viability, T/C","second compound 1 µM, first compound 0.1 µM",20.4%
